Experimental data: patent US8669361B2, “Pyrazol-4-yl-heterocyclyl-carboxamide compounds and methods of use” (Genentech, Inc., priority 2010, dated 2014)
Read-outs that look alike come from different tables or passages of the source.

What was measured:
[1] = biological target: PIM1 (Homo sapiens (Human), UniProt P11309); experiment: Pim kinase binding activity, Caliper LC3000 microfluidic peptide phosphorylation assay (Example 901); type: biochemical; details: 20 pM PIM1, 1 μM FAM-peptide, 10 μM ATP, 90 minutes at room temperature; read-out: PIM1 LC3K (KI)
Description: (§1) PIM-1, -2, and -3 enzymes were generated as fusion proteins expressed in bacteria and purified by IMAC column chromatography (Sun, X., Chiu, J. F., and He, Q. Y. (2005) Expert Rev. Proteomics, 2:649-657). A fluorescent-labeled Pim-specific peptide substrate, was custom synthesized by American Peptide Company (Sunnyvale, Calif.). Reaction Buffer contained 10 mM HEPES, pH 7.2, 10 mM MgCl2, 0.01% Tween 20, 2 mM DTT. Termination Buffer contained 190 mM HEPES, pH 7.2, 0.015% Brij-35, 0.2% Coating Reagent 3 (Caliper Life Sciences, Hopkinton, Mass.), 20 mM EDTA. Separation Buffer contained 100 mM HEPES, pH 7.2, 0.015% Brij-35, 0.1% Coating Reagent 3, 1:200 Coating Reagent 8 (Caliper Life Sciences, Hopkinton, Mass.), 10 mM EDTA and 5% DMSO.
(§2) PIM reactions were carried out in a final volume of 10 μL per well in a 384-well plate. A standard enzymatic reaction, initiated by the addition of 5 μL 2×ATP and test compound to 5 μL of 2× enzyme and FAM-peptide, contained 20 pM PIM1, 50 pM PIM2, or 55 pM PIM3, 1 μM FAM-peptide, and 10 μM ATP, in Reaction Buffer. After 90 minutes of incubation at room temperature, the phosphorylation reaction was stopped by the addition of 10 μL Termination Buffer. The product and substrate in each independent reaction were separated on a 12-sipper microfluidic chip (Caliper Life Sciences, Hopkinton, Mass.) run on a Caliper LC3000® (Caliper Life Sciences, Hopkinton, Mass.). The separation of product and substrate was optimized by choosing voltages and pressure using Caliper's Optimizer software (Hopkinton, Mass.). The separation conditions used a downstream voltage of −500V, an upstream voltage of −2150V, and a screening pressure of −1.2 psi. The product and substrate fluorophore were excited at 488 nm and detected at 530 nm. Substrate conversion was calculated from the electropherogram using HTS Well Analyzer software (Caliper Life Sciences, Hopkinton, Mass.). Ki values for the test compound were calculated.

[2] = biological target: PIM3 (Homo sapiens (Human), UniProt Q86V86); experiment: as above; type: biochemical; details: 55 pM PIM3, 1 μM FAM-peptide, 10 μM ATP, 90 minutes at room temperature; read-out: PIM3 LC3K (KI)
Description: as §1, §2

[3] = biological target: PIM2 (Homo sapiens (Human), UniProt Q9P1W9); experiment: as above; type: biochemical; details: 50 pM PIM2, 1 μM FAM-peptide, 10 μM ATP, 90 minutes at room temperature; read-out: PIM2 LC3K (KI)
Description: as §1, with “A” for “PIM-1, -2, and -3 enzymes were generated as fusion proteins expressed in bacteria and purified by IMAC column chromatography (Sun, X., Chiu, J. F., and He, Q. Y. (2005) Expert Rev. Proteomics, 2:649-657). A”
as §2, with “A standard enzymatic reaction, initiated by the addition of 5 μL 2×ATP and test compound to 5 μL of 2× enzyme and FAM-peptide, contained 20 pM PIM1, 50 pM PIM2, or 55 pM PIM3, 1 μM FAM-peptide, and 10 μM ATP, in Reaction Buffer.” left out, “The product and substrate fluorophore were excited at 488 nm and detected at 530 nm.” left out

[4] = system: BaF3 PIM1 cells; experiment: In vitro cell proliferation potency assay, Cell Titer Glo (Example 902); type: cell-based, murine; details: Mus musculus
Description: (§3) BaF3 parental line was obtained from the DSMZ repository. BaF3 lines transfected with PIM 1 or PIM2 were generated. Mouse IL-3 was purchased from R&D Systems. G418 was purchased from Clontech. Media for BaF3 parental line contained RPMI, 10% FBS, 2 mM L-Glutamine, 2 ng/mL mIL-3. Media for BaF3 PIM1 & 2 lines contained RPMI, 10% FBS, 2 mM L-Glutamine, […]. Media for MM1.S (multiple myeloma cells) line contained RPMI, 10% FBS, 2 mM L-Glutamine.
(§4) BaF3, a murine interleukin-3 dependent pro-B cell line, parental cells, BaF3 PIM1 cells, BaF3 PIM2 cells, and MM1.S (multiple myeloma) cells were seeded at 2 k/well, 5 k/well, 5 k/well, and 10 k/well respectively, in a 384-well plate, at 45 μL/well. Test compound was added at 5 μL/well. BaF3 cells (parental and transfected) were incubated overnight, while MM1.S cells were incubated for 72 hours at 37° C., 5% CO2. Cell Titer Glo Reagent (Promega) was added at 50 μL/well, the plates were incubated for 30 minutes, and their luminescence read on an HT Analyst. IC50/EC50 values for the test compound were calculated.

[5] = system: BaF3 parental cells; experiment: as above; type: cell-based, murine; details: Mus musculus
Description: as §3, §4

PIM1, sequence (P11309 whole entry, the tested form may be a part): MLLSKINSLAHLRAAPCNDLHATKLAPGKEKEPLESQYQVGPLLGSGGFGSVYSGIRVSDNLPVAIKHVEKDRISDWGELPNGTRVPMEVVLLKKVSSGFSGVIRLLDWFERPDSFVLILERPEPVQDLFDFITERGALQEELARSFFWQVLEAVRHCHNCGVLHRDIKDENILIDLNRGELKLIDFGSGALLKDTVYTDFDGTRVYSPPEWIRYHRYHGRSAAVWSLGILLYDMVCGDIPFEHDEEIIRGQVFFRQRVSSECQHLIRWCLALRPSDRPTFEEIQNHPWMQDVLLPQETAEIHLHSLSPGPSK
PIM2, sequence (Q9P1W9 whole entry, the tested form may be a part): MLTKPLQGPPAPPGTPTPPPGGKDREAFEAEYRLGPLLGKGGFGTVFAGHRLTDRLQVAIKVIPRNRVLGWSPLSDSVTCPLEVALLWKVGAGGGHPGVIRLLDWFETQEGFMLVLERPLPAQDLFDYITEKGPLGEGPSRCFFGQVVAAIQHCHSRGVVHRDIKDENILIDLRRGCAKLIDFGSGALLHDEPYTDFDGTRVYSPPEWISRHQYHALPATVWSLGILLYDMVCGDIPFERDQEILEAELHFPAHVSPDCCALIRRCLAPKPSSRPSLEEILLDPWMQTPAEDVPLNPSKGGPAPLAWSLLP

**Q.** `Cn1cc(NC(=O)c2nc(-c3c(F)cccc3F)sc2N)cn1` [Example 102, 5-amino-2-(2,6-difluorophenyl)-N-(1-methyl-1H-pyrazol-4-yl)thiazole-4-carboxamide] was tested. Which Ki [1] did it give?
**A.** 16 nM

**Q.** What about the Ki [2] of the same molecule?
**A.** 8.8 nM

**Q.** And the Ki [3]?
**A.** 110 nM

**Q.** What does the source list for `Cn1ncc(NC(=O)c2nc(-c3c(F)cccc3F)sc2N)c1NCC1CCNCC1` [Example 105, 5-amino-2-(2,6-difluorophenyl)-N-(1-methyl-5-(piperidin-4-ylmethylamino)-1H-pyrazol-4-yl)thiazole-4-carboxamide]?
**A.** Ki [1]: 4.54 nM; Ki [2]: 5.77 nM; Ki [3]: 148 nM

**Q.** What does the source list for `Cn1ncc(NC(=O)c2nc(-c3ccccc3F)sc2N)c1N1CCC[C@H](N)C1` [Example 107, (S)-5-amino-N-(5-(3-aminopiperidin-1-yl)-1-methyl-1H-pyrazol-4-yl)-2-(2-fluorophenyl)thiazole-4-carboxamide]?
**A.** Ki [1]: 1.22 nM; Ki [2]: 0.575 nM; Ki [3]: 20.1 nM

**Q.** Which Ki [1] does the source give for `Cn1ncc(NC(=O)c2nc(-c3ccccc3)ccc2N)c1N1CCC(N)CC1` [Example 109, 3-amino-N-(5-(4-aminopiperidin-1-yl)-1-methyl-1H-pyrazol-4-yl)-6-phenylpicolinamide] here?
**A.** 0.762 nM

**Q.** And the Ki [2]?
**A.** 2.63 nM

**Q.** What about the Ki [3] of the same molecule?
**A.** 41.1 nM

**Q.** Which Ki [1] does the source give for `Cn1ncc(NC(=O)c2nc(-c3ccccc3F)ccc2N)c1N1CCC[C@@H](N)C1` [Example 112, (R)-3-amino-N-(5-(3-aminopiperidin-1-yl)-1-methyl-1H-pyrazol-4-yl)-6-(2-fluorophenyl)picolinamide] here?
**A.** 0.246 nM

**Q.** What about the Ki [2] of the same molecule?
**A.** 0.34 nM

**Q.** And the Ki [3]?
**A.** 2.49 nM

**Q.** Which results are given for `Cn1ncc(NC(=O)c2nc(-c3ccccc3F)ccc2N)c1OC1CCNCC1` [Example 116, 3-amino-6-(2-fluorophenyl)-N-(1-methyl-5-(piperidin-4-yloxy)-1H-pyrazol-4-yl)picolinamide]?
**A.** Ki [1]: 4.36 nM; Ki [2]: 4.97 nM; Ki [3]: 26.2 nM

**Q.** For `Cn1ncc(NC(=O)c2nc(-c3ccccc3F)ccc2N)c1OCC1CCNCC1` [Example 117, 3-amino-6-(2-fluorophenyl)-N-(1-methyl-5-(piperidin-4-ylmethoxy)-1H-pyrazol-4-yl)picolinamide], which IC50 ([4]; BaF3, read-out: Prolif BaF3 PIM1 (IC50)) is on record?
**A.** 4900 nM

**Q.** What about the IC50 ([5]; BaF3, read-out: Prolif BaF3 IL3 (IC50)) of the same molecule?
**A.** > 25000 nM

**Q.** Which results are given for `Cn1ncc(NC(=O)c2nc(Cl)cnc2N)c1N1CCC[C@H](N)C1` [Example 123, (S)-3-amino-N-(5-(3-aminopiperidin-1-yl)-1-methyl-1H-pyrazol-4-yl)-6-chloropyrazine-2-carboxamide]?
**A.** Ki [1]: 137 nM; Ki [2]: 215 nM; Ki [3]: 587 nM

**Q.** How did the Ki [2] turn out when `Cn1ncc(NC(=O)c2nc(-c3ccccc3F)ccc2N)c1N1CC[C@@H](N)C1` [Example 124, (R)-3-amino-N-(5-(3-aminopyrrolidin-1-yl)-1-methyl-1H-pyrazol-4-yl)-6-(2-fluorophenyl)picolinamide] was run?
**A.** 3.79 nM

**Q.** And the Ki [3]?
**A.** 28.5 nM

**Q.** How did the IC50 ([4]; BaF3 line transfected with PIM1, incubated overnight, read-out: Prolif BaF3 PIM1 (IC50)) turn out when `Cn1ncc(NC(=O)c2nc(-c3c(F)cccc3F)sc2N)c1N1CCC(CN)CC1` [Example 133, 5-amino-N-(5-(4-(aminomethyl)piperidin-1-yl)-1-methyl-1H-pyrazol-4-yl)-2-(2,6-difluorophenyl)thiazole-4-carboxamide] was run?
**A.** 258 nM

**Q.** And the IC50 ([5]; BaF3 parental line, medium with 2 ng/mL mIL-3, incubated overnight, read-out: Prolif BaF3 IL3 (IC50))?
**A.** 25000 nM

**Q.** `Cn1ncc(NC(=O)c2nc(-c3ccccc3F)ccc2N)c1N1CCC[C@H](N)CC1` [Example 142, (S)-3-amino-N-(5-(4-aminoazepan-1-yl)-1-methyl-1H-pyrazol-4-yl)-6-(2-fluorophenyl)picolinamide] was tested. Which Ki [1] did it give?
**A.** 0.368 nM

**Q.** And the Ki [2]?
**A.** 0.245 nM

**Q.** And the Ki [3]?
**A.** 3.13 nM

**Q.** What does the source list for `Cn1ncc(NC(=O)c2cncc(-c3ccccc3F)n2)c1N1CCC[C@H](N)CC1` [Example 220, (S)—N-(5-(4-aminoazepan-1-yl)-1-methyl-1H-pyrazol-4-yl)-6-(2-fluorophenyl)pyrazine-2-carboxamide]?
**A.** Ki [1]: 22 nM; Ki [2]: 34.2 nM; Ki [3]: 581 nM

**Q.** Which Ki [1] does the source give for `CN1CCC(c2c(NC(=O)c3nc(-c4c(F)cccc4F)sc3N)cnn2C)CC1` [Example 231, 5-amino-2-(2,6-difluorophenyl)-N-(1-methyl-5-(1-methylpiperidin-4-yl)-1H-pyrazol-4-yl)thiazole-4-carboxamide] here?
**A.** 7.65 nM

**Q.** What about the Ki [2] of the same molecule?
**A.** 5.26 nM

**Q.** What about the Ki [3] of the same molecule?
**A.** 201 nM

**Q.** Which results are given for `Cn1ncc(NC(=O)c2ccc(F)c(-c3c(F)cccc3F)n2)c1N1CCC[C@@H](N)CC1` [Example 238, (R)—N-(5-(4-aminoazepan-1-yl)-1-methyl-1H-pyrazol-4-yl)-6-(2,6-difluorophenyl)-5-fluoropicolinamide]?
**A.** Ki [1]: 0.897 nM; Ki [2]: 2.48 nM; Ki [3]: 17.3 nM

**Q.** With `Cn1ncc(NC(=O)c2nc(-c3c(F)cccc3F)sc2N)c1C1CCNCC1` [Example 263, 5-amino-2-(2,6-difluorophenyl)-N-(1-methyl-5-(piperidin-4-yl)-1H-pyrazol-4-yl)thiazole-4-carboxamide] as the molecule, how does the Ki [1] read?
**A.** 10.4 nM

**Q.** And the Ki [2]?
**A.** 6.12 nM

**Q.** What about the Ki [3] of the same molecule?
**A.** 185 nM

**Q.** What does the source list for `CN[C@H]1CCCN(c2c(NC(=O)c3nc(-c4c(F)cccc4F)sc3N)cnn2C)CC1` [Example 328, (S)-5-amino-2-(2,6-difluorophenyl)-N-(1-methyl-5-(4-(methylamino)azepan-1-yl)-1H-pyrazol-4-yl)thiazole-4-carboxamide]?
**A.** Ki [1]: 0.096 nM; Ki [2]: 0.176 nM; Ki [3]: 4.37 nM

**Q.** `Nc1sc(-c2c(F)cccc2F)nc1C(=O)Nc1cnn(CCF)c1` [Example 353, 5-amino-2-(2,6-difluorophenyl)-N-(1-(2-fluoroethyl)-1H-pyrazol-4-yl)thiazole-4-carboxamide] was tested. Which Ki [1] did it give?
**A.** 11.9 nM

**Q.** And the Ki [2]?
**A.** 19 nM

**Q.** What about the Ki [3] of the same molecule?
**A.** 38 nM

**Q.** How did the Ki [1] turn out when `CCn1ncc(NC(=O)c2nc(-c3ccccc3F)sc2N)c1N1CCC[C@@H](N)CC1` [Example 364, (R)-5-Amino-N-(5-(4-aminoazepan-1-yl)-1-ethyl-1H-pyrazol-4-yl)-2-(2-fluorophenyl)thiazole-4-carboxamide] was run?
**A.** 20 nM

**Q.** What about the Ki [2] of the same molecule?
**A.** 24 nM

**Q.** And the Ki [3]?
**A.** 124 nM

**Q.** `Cn1ncc(NC(=O)c2nc(-c3c(F)cccc3F)sc2N)c1C1CCC(N)CC1` (stereo not drawn) [Example 369, 5-amino-N-(5-(4-aminocyclohexyl)-1-methyl-1H-pyrazol-4-yl)-2-(2,6-difluorophenyl)thiazole-4-carboxamide] was tested. Which Ki [1] did it give?
**A.** 0.462 nM

**Q.** And the Ki [2]?
**A.** 0.735 nM

**Q.** And the Ki [3]?
**A.** 12.5 nM
